≈ marks a conversion by molar mass, not a printed value. Where two headings read alike, the source gives them in different places.
What was measured:
Type in all cases: cell-based
E. coli 901C = assay: Broth microdilution MIC in CAMHB; details: Escherichia coli; E. coli 901C (hyper-permeable); MHB; read-out: Minimum Inhibitory Concentration, E. coli 901C
Summary of the method: (§1)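 MIC, read by eye, is the lowest compound concentration giving no bacterial growth after 16-20 h at 37° C. Test compounds are serially diluted 2-fold in CAMHB and seeded with 2-8×10^5 CFU/mL of bacteria taken from a 3-5 h shaking culture, following CLSI methods.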

E. coli AG100A = assay: Broth microdilution MIC in CAMHB; details: Escherichia coli, read-out: Minimum Inhibitory Concentration, E. coli AG100A
Summary of the method: as §1

E. coli AG100 = assay: Broth microdilution MIC in CAMHB; details: Escherichia coli; E. coli AG100 (wild-type parent); MHB; read-out: Minimum Inhibitory Concentration, E. coli AG100
Summary of the method: as §1

E. coli D22 = assay: Broth microdilution MIC in CAMHB; details: Escherichia coli; E. coli D22 (hyper-permeable); MHB; read-out: Minimum Inhibitory Concentration, E. coli D22
Summary of the method: as §1

[1] = tested on: K. pneumoniae UMM producing SHV-5 and KPC-2; assay: Broth microdilution MIC in CAMHB; details: Klebsiella pneumoniae, read-out: Minimum Inhibitory Concentration, K. pneumoniae UMM
Summary of the method: as §1

[2] = tested on: N. gonorrhoeae ATCC 49226; assay: Liquid broth MIC in Fastidious broth; details: Neisseria gonorrhoeae, ATCC49226, Fastidious broth
Summary of the method: (§2)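 Colonies were swabbed from chocolate agar after 24 h growth and standardised by optical density at 600 nm. Compounds were serially diluted twofold in Fastidious broth, and bacteria added to give 5×10^5 CFU/mL. After about 24 h at 36 °C in 5% CO2, the lowest concentration allowing under 10% growth was taken as MIC.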

N. gonorrhoeae FA1090 = assay: Liquid broth MIC in Fastidious broth; details: Neisseria gonorrhoeae, Fastidious broth
Summary of the method: as §2

N. gonorrhoeae H041 = assay: Liquid broth MIC in Fastidious broth; details: Neisseria gonorrhoeae
Summary of the method: (§3)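 Broth microdilution against gonococcal strains expressing mosaic PBP2, starting inoculum 5×10^5 CFU/mL in Fastidious broth. Incubation runs ~24 h at 36 °C under 5% CO2, with MIC scored visually at <10% of full growth.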

N. gonorrhoeae WHO G = assay: Liquid broth MIC in Fastidious broth; details: Neisseria gonorrhoeae, Fastidious broth
Summary of the method: as §2

N. gonorrhoeae WHO K = assay: Liquid broth MIC in Fastidious broth; details: Neisseria gonorrhoeae
Summary of the method: as §3

N. gonorrhoeae WHO L = assay: Liquid broth MIC in Fastidious broth; details: Neisseria gonorrhoeae, Fastidious broth
Summary of the method: as §2

N. gonorrhoeae WHO Q = assay: Liquid broth MIC in Fastidious broth; details: Neisseria gonorrhoeae
Summary of the method: as §3

N. gonorrhoeae WHO Z = assay: Liquid broth MIC in Fastidious broth; details: Neisseria gonorrhoeae
Summary of the method: as §3

[3] = N. gonorrhoeae ATCC 49226, read-out: Minimum Inhibitory Concentration, ATCC 49226
[4] = N. gonorrhoeae FA1090, read-out: Minimum Inhibitory Concentration, FA1090
[5] = H041, read-out: Minimum Inhibitory Concentration, H041
[6] = N. gonorrhoeae WHO G, read-out: Minimum Inhibitory Concentration, WHO G
[7] = read-out: Minimum Inhibitory Concentration, WHO K
[8] = N. gonorrhoeae WHO L, read-out: Minimum Inhibitory Concentration, WHO L
[9] = read-out: Minimum Inhibitory Concentration, WHO Q
[10] = read-out: Minimum Inhibitory Concentration, WHO Z
[11] = N. gonorrhoeae strain ATCC 49226, read-out: Minimum Inhibitory Concentration, N. gonorrhoeae ATCC 49226
[12] = N. gonorrhoeae strain FA1090, read-out: Minimum Inhibitory Concentration, N. gonorrhoeae FA1090
[13] = H041, read-out: Minimum Inhibitory Concentration, N. gonorrhoeae H041
[14] = N. gonorrhoeae strain WHO G, read-out: Minimum Inhibitory Concentration, N. gonorrhoeae WHO G
[15] = read-out: Minimum Inhibitory Concentration, N. gonorrhoeae WHO K
[16] = N. gonorrhoeae strain WHO L, read-out: Minimum Inhibitory Concentration, N. gonorrhoeae WHO L
[17] = read-out: Minimum Inhibitory Concentration, N. gonorrhoeae WHO Q
[18] = read-out: Minimum Inhibitory Concentration, N. gonorrhoeae WHO Z

Row | SMILES | MIC (E. coli 901C) | MIC (E. coli AG100A) | MIC (E. coli AG100) | MIC (E. coli D22) | MIC [1] | MIC [2, 3] | MIC (N. gonorrhoeae FA1090; [4]) | MIC (N. gonorrhoeae H041; [5]) | MIC (N. gonorrhoeae WHO G; [6]) | MIC (N. gonorrhoeae WHO K; [7]) | MIC (N. gonorrhoeae WHO L; [8]) | MIC (N. gonorrhoeae WHO Q; [9]) | MIC (N. gonorrhoeae WHO Z; [10]) | MIC [2, 11] | MIC (N. gonorrhoeae FA1090; [12]) | MIC (N. gonorrhoeae H041; [13]) | MIC (N. gonorrhoeae WHO G; [14]) | MIC (N. gonorrhoeae WHO K; [15]) | MIC (N. gonorrhoeae WHO L; [16]) | MIC (N. gonorrhoeae WHO Q; [17]) | also measured
1 | NCCN1CCN(C(=O)N[C@@H](C(=O)N[C@H]2Cc3cccc(C(=O)O)c3OB2O)c2c(F)cccc2Cl)C(=O)C1=O (single isomer, unassigned) [Example 205] | 8 to 16 µg/mL (≈ 13.9 to 27.8 µM) | 8 to 16 µg/mL (≈ 13.9 to 27.8 µM) | > 128 µg/mL | 32 to 64 µg/mL (≈ 55.6 to 111 µM) | > 128 µg/mL | > 64 µg/mL | 16 to 32 µg/mL (≈ 27.8 to 55.6 µM) | > 64 µg/mL | > 64 µg/mL | > 64 µg/mL | > 64 µg/mL | > 64 µg/mL | > 64 µg/mL | – | – | – | – | – | – | – | –
2 | CCN1CCN(C(=O)NC(C(=O)N[C@H]2Cc3cccc(C(=O)O)c3OB2O)c2c(F)cc(NC(=O)NC)cc2F)C(=O)C1=O (stereo partly drawn) [Example 213, (3R)-3-(2-(2,6-difluoro-4-(3-methylureido)phenyl)-2-(4-ethyl-2,3-dioxopiperazine-1-carboxamido)acetamido)-2-hydroxy-3,4-dihydro-2H-benzo[e][1,2]oxaborinine-8-carboxylic acid] | < 0.25 µg/mL | 2 to 4 µg/mL (≈ 3.24 to 6.49 µM) | 32 to 64 µg/mL (≈ 51.9 to 104 µM) | 2 to 4 µg/mL (≈ 3.24 to 6.49 µM) | 32 to 64 µg/mL (≈ 51.9 to 104 µM) | 4 to 8 µg/mL (≈ 6.49 to 13 µM) | < 0.125 µg/mL | > 64 µg/mL | 1 to 2 µg/mL (≈ 1.62 to 3.24 µM) | > 64 µg/mL | > 64 µg/mL | > 64 µg/mL | 16 to 32 µg/mL (≈ 26 to 51.9 µM) | – | – | – | – | – | – | – | –
3 | NCCN1CCN(C(=O)N[C@@H](C(=O)N[C@H]2Cc3cccc(C(=O)O)c3OB2O)c2c(O)cc(O)cc2F)C(=O)C1=O (single isomer, unassigned) [Example 194] | 0.5 to 1 µg/mL (≈ 0.872 to 1.74 µM) | 2 to 4 µg/mL (≈ 3.49 to 6.98 µM) | 8 to 16 µg/mL (≈ 14 to 27.9 µM) | 2 to 4 µg/mL (≈ 3.49 to 6.98 µM) | 8 to 16 µg/mL (≈ 14 to 27.9 µM) | – | – | – | – | – | – | – | – | 16 to 32 µg/mL (≈ 27.9 to 55.8 µM) | 1 to 2 µg/mL (≈ 1.74 to 3.49 µM) | > 64 µg/mL | 4 to 8 µg/mL (≈ 6.98 to 14 µM) | > 64 µg/mL | > 64 µg/mL | > 64 µg/mL | MIC (N. gonorrhoeae WHO Z; [18]): > 64 µg/mL
4 | CCN1CCN(C(=O)NC(C(=O)N[C@H]2Cc3cccc(C(=O)O)c3OB2O)c2cc(NS(N)(=O)=O)ccc2F)C(=O)C1=O (stereo partly drawn) [Example 197, (3R)-3-(2-(4-ethyl-2,3-dioxopiperazine-1-carboxamido)-2-(2-fluoro-5-(sulfamoylamino)phenyl)acetamido)-2-hydroxy-3,4-dihydro-2H-benzo[e][1,2]oxaborinine-8-carboxylic acid] | < 0.25 µg/mL | 0.5 to 1 µg/mL (≈ 0.806 to 1.61 µM) | 8 to 16 µg/mL (≈ 12.9 to 25.8 µM) | 0.5 to 1 µg/mL (≈ 0.806 to 1.61 µM) | 8 to 16 µg/mL (≈ 12.9 to 25.8 µM) | – | – | – | – | – | – | – | – | 16 to 32 µg/mL (≈ 25.8 to 51.6 µM) | 0.25 to 0.5 µg/mL (≈ 0.403 to 0.806 µM) | 16 to 32 µg/mL (≈ 25.8 to 51.6 µM) | 4 to 8 µg/mL (≈ 6.45 to 12.9 µM) | 16 to 32 µg/mL (≈ 25.8 to 51.6 µM) | > 64 µg/mL | 16 to 32 µg/mL (≈ 25.8 to 51.6 µM) | MIC (N. gonorrhoeae WHO Z; [18]): 16 to 32 µg/mL (≈ 25.8 to 51.6 µM)
